According to patent US20250345318A1, “COMPOUND AND USE THEREOF IN PREVENTING OR TREATING RADIATION DAMAGE” (SIMCERE PHARMACEUTICAL CO., LTD., priority 2022, published 2025):

Key:
C57BL/6 male mice [1] = test: Prophylactic JAC4 administration, total body X-ray irradiation, small intestine villus length (Example 6); type: in vivo
Procedure: (§1) C57BL/6 male mice (24.8±1.6 g in body weight) aged 10 weeks were divided into 4 groups. JAC4 (100 mg/kg) or an equal volume of vehicle (polyethylene glycol:ethanol:physiological saline=47.5:7.5:50, v/v/v) was orally administered to the mice once daily for 7 consecutive days. After that, the mice were subjected to total body X-ray irradiation (6 Gy) and JAC4 or vehicle treatment was discontinued. After 7 days, the small intestine tissues were collected for HE staining and inspection, and the small intestine villus length was measured in all groups and statistically analyzed. The specific procedures are as follows: 3 mice were randomly selected from each group for statistical analysis of their small intestine tissue HE staining images, and for each mouse, 6 fields of view were randomly selected for inspection (*** p<0.001).

C57BL/6 male mice [2] = test: Therapeutic JAC4 administration, total body X-ray irradiation, small intestine villus length (Example 7); type: in vivo
Procedure: as §1, with “groups. The mice were subjected to total body X-ray irradiation (6 Gy) before” for “groups.”, “The” for “After that, the mice were subjected to total body X-ray irradiation (6 Gy) and JAC4 or vehicle treatment was discontinued. After 7 days, the”

C57BL/6 male mice [3] = test: Small intestine epithelial injury after abdominal X-ray irradiation 12 Gy (Example 10); type: in vivo; details: for small intestine crypt height / small intestine histopathological score: JAC4 100 mg/kg; for small intestine villus length: JAC4 100 mg/kg oral 7 days
Procedure: C57BL/6 male mice (24.7±0.9 g in body weight) aged 10 weeks were divided into 3 groups: a vehicle control group (n=6), a vehicle+radiation group (n=12), and a JAC4+radiation group (n=12). JAC4 (100 mg/kg) or an equal volume of vehicle (polyethylene glycol:ethanol:physiological saline=47.5:7.5:50, v/v/v) was orally administered to the mice once daily for 7 consecutive days. After that, the mice in the radiation groups were subjected to abdominal X-ray irradiation (12 Gy). The mice in the vehicle control group (n=6), the vehicle+radiation group (n=6), and the JAC4+radiation group (n=6) were sacrificed at 6 h, and blood samples and small intestine tissues were collected. The remaining mice in the vehicle+radiation group (n=6) and the JAC4+radiation group (n=6) were sacrificed after day 8, and blood samples and small intestine tissues were collected. In the process, abdominal irradiation was given while sparing the femoral region to minimize damage to the hematopoietic system. After the abdominal irradiation, HE staining was performed on the small intestines of mice in all groups, and the small intestine villus lengths, histopathological scores of the small intestine tissue sections, and the crypt heights were measured in all groups (* p<0.05, *** p<0.001).

C57BL/6 male mice [4] = test: Lengths of small intestine and colon, acute radiation enteritis (Example 11); type: in vivo; details: JAC4 100 mg/kg oral + abdominal X-ray 12 Gy
Procedure: C57BL/6 male mice (27.6±1.9 g in body weight) aged 10 weeks were divided into 3 groups of 6 mice each. JAC4 (100 mg/kg) or an equal volume of vehicle (polyethylene glycol:ethanol:physiological saline=40:7.5:52.5, v/v/v) was orally administered to the mice once daily for 7 consecutive days. After that, the mice were subjected to abdominal X-ray irradiation (12 Gy) and JAC4 or vehicle treatment was continued. After 4 days, blood samples and small intestine were collected.
The small intestine epithelial mucosal barrier is located at the interface between luminal micro-organisms and the mucosal immune system, and can maintain the intestinal mucosal barrier homeostasis. The integrity of the small intestine mucosal barrier is determined by a number of factors, including the tight junction proteins, proteins in other cell junction complexes, and the like. JAC4 has a protective effect on the small intestine mucosal barrier. The disruption of the small intestine mucosal barrier may lead to radiation enteritis and a reduction in the length of small intestine due to the inflammatory edema.

BEAS-2B cells = test: Plate colony formation, BEAS-2B (Example 22); type: cell-based, human
Procedure: The cell proliferation capacity was determined by a plate colony formation experiment, with the following specific procedures.
(§2) 1. SPCA-1 and BEAS-2B cells (or SPCA-1 and BEAS-2B cells transfected with JWA-knockdown plasmids) in the exponential growth phase were plated in 6-well plates at a specific amount. The number of plated cells is as follows
(§3) 2. After the cells adhered to the container wall, the cells were treated (or not treated) with […] JAC4 and treated with X-ray of 0, 2, 4, or 6 Gy. The medium was replaced with a fresh medium containing JAC4 at the corresponding concentration once every 2 days (or the cells were treated with X-ray of 0, 2, 4, or 6 Gy after adhesion, and the medium was replaced with a fresh medium once every 2 days).
(§4) 3. After the cells were cultured for 10-14 days, colonies were visually observed. The culture medium was discarded, and the cells were fixed with methanol for 10-20 min, stained with crystal violet for 10 min, slowly washed with flowing clear water thrice, photographed, and counted for colonies containing>50 cells.
4. The colony forming efficiency (CFE)=(number of colonies formed/number of seeded cells) 100% was calculated, and the cell survival fraction (SF)=(colony forming efficiency of treatment group/colony forming efficiency of 0 Gy group)×100% was calculated from the colony forming efficiency.

NF-κB = NF-κB nuclear translocation by Western blot, BEAS-2B (Example 22); type: cell-based, human; details: JAC4 in combination with X-ray
Text: The production of ROS may lead to the activation of NF-κB, promote the translocation of NF-κB to the cell nucleus, and mediate various inflammatory responses. The nuclear and cytoplasmic proteins in BEAS-2B cells in all groups were separated.

[5] = system: BEAS-2B cells transfected with JWA-knockdown plasmids; test: Colony formation of BEAS-2B cells transfected with JWA-knockdown plasmids (Example 22); type: cell-based, human; details: JAC4-treated JWA-knockdown BEAS-2B vs JAC4-treated si-Control
Procedure: as §2, §3, §4
4. The colony forming efficiency (CFE)=(number of colonies formed/number of seeded cells) 100% was calculated, and the cell survival fraction (SF)=(colony forming efficiency of treatment group/colony forming efficiency of 0 Gy group)×100% was calculated from the colony forming efficiency. […]

[6] = non-radiation, JAC4 100 mg/kg oral 7 days
[7] = 6 h after abdominal X-ray 12 Gy
[8] = day 8 after abdominal X-ray 12 Gy

c1ccc(CSc2nnc(C3COc4ccccc4O3)o2)nc1 (stereo not shown) [JAC4]
small intestine villus length (C57BL/6 male mice [1]; JAC4 100 mg/kg oral 7 days pretreatment, then TBI 6 Gy, tissue 7 days later): 277.64±33.55 μm
small intestine villus length (C57BL/6 male mice [1]; [6]): 306.54±14.00 μm
small intestine villus length (C57BL/6 male mice [2]; TBI 6 Gy, then JAC4 100 mg/kg oral once daily 7 days): 263.11±37.99 μm
small intestine villus length (C57BL/6 male mice [2]; [6]): 306.71±24.22 μm
small intestine crypt height (C57BL/6 male mice [3]; [7]): 49.80±4.06 μm
small intestine histopathological score (C57BL/6 male mice [3]; [7]): 3.17±0.41
small intestine villus length (C57BL/6 male mice [3]; [7]): 308.25±25.65 μm
small intestine crypt height (C57BL/6 male mice [3]; [8]): 53.76±3.33 μm
small intestine histopathological score (C57BL/6 male mice [3]; [8]): 2.83±0.41
small intestine villus length (C57BL/6 male mice [3]; [8]): 300.38±33.27 μm
small intestine length (C57BL/6 male mice [4]; 4 days after): 34.83±1.44 cm
length of the colon (C57BL/6 male mice [4]; among the groups): no statistically significant differences
cell survival (radiosensitization curve) (BEAS-2B cells; 10 μM JAC4 + X-ray vs X-ray monotherapy): slightly increased
number of colonies formed (BEAS-2B cells; JAC4 in combination with X-ray): increased
X-ray-induced increase of NF-κB nuclear expression (NF-κB): inhibited
cell survival rate (radiosensitization curve) [5]: significantly decreased
